Source: ChEMBL document CHEMBL4257572, “Semisynthesis of ent-norstrobane diterpenoids as potential inhibitor for factor Xa” (Bioorg Med Chem Lett, 2018)
pIC50: −log10 of the molar value.

What follows are compounds tested against Coagulation factor X (Homo sapiens, UniProt P00742) (assay: Inhibition of human coagulation factor 10a using Z-D-Arg-Gly-Arg-pNA.2HCl as substrate preincubated for 15 mins followed by substrate addition by UV absorption assay).
Sequence of Coagulation factor X (P00742 41-179 limits assumed): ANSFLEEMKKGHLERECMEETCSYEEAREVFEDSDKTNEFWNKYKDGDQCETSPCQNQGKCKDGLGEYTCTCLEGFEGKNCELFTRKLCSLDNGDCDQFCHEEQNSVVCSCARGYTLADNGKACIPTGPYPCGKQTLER
Sequence of Coagulation factor X (P00742 235-488 limits assumed): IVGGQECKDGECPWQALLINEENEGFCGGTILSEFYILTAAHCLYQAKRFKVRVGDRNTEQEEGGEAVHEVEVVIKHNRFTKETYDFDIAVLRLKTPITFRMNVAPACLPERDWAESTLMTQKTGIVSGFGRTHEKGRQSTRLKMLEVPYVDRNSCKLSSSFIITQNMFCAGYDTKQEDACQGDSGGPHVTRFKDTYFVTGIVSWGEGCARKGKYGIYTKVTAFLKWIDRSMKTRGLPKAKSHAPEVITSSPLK

SMILES | pIC50
CC(=O)O[C@@H]1CC[C@@]2(C)[C@@H]3CC[C@](C)(O)CC=C3CC[C@@H]2C1(C)C | 5.24
CC1(C)[C@H](O)CC[C@@]2(C)[C@@H]3CC[C@](C)([C@@H](O)CO)C=C3CC[C@H]12 [DARUTIGENOL] | 4.94
CC1(C)OCC([C@]2(C)C=C3CC[C@@H]4[C@](C)(CO)C[C@@H](O)C[C@@]4(C)[C@@H]3CC2)O1 (stereo not given in full) | 5.14
CC(=O)O[C@@H]1CC[C@@]2(C)[C@@H]3CC[C@](C)(CO)C=C3CC[C@@H]2C1(C)C | 5.07
CC(=O)OC[C@]1(C)C[C@@H](OC(C)=O)C[C@@]2(C)[C@@H]3CC[C@](C)([C@@H](O)CO)C=C3CC[C@H]12 | 5.25

The next compounds have a higher pIC50 than those just listed; values first:

pIC50 | SMILES
7.09 | CC(=O)OC[C@]1(C)C[C@@H](OC(C)=O)C[C@@]2(C)[C@@H]3CC[C@](C)(O)CC=C3CC[C@H]12
5.97 | CC(=O)OC[C@]1(C)C[C@@H](OC(C)=O)C[C@@]2(C)[C@@H]3CC[C@](C)(CO)C=C3CC[C@H]12
5.99 | CC1(C)OCC([C@]2(C)C=C3CC[C@@H]4C(C)(C)[C@H](O)CC[C@@]4(C)[C@@H]3CC2)O1 (stereo not given in full)
5.52 | CC(=O)O[C@@H]1CC[C@@]2(C)[C@@H]3CC[C@](C)([C@@H](O)CO)C=C3CC[C@@H]2C1(C)C
5.59 | C[C@@]1(CO)C[C@@H](O)C[C@@]2(C)[C@@H]3CC[C@](C)([C@@H](O)CO)C=C3CC[C@H]12 [KIRENOL]
